Columns and labels:
SUDHL6 = assay: Compound 1 with dexamethasone, CellTiter-Glo viability 72 h, combination index; format: cell-based; conditions: SUDHL6
Protocol: The effects of Compound 1 with dexamethasone were examined in a panel of cell lines. Cells were cultured and assayed as follows. Compound 1 was serially diluted with cell culture medium and various DMSO concentrations. The top concentration of Compound 1 exposed to cells was 3 uM for cell lines other than WSU-NHL and DOHH2. For WSU-NHL and DOHH2 cell lines, the top concentration of Compound 1 exposed to the cells was 0.3 uM. Dexamethasone was serially diluted in culture media and phosphate buffered saline (PBS). The top concentration of dexamethasone used on cells was 3 uM. Cells were at least 73% viable and were counted and diluted for plating at a density of about 92,000 cell/mL, 130 uL cells per well in 96 well plates for SUDHL6, Karpas 422, SUDHL4, WSU-NHL, RL, and DOHH2 cell lines. The SUDHL10 cell line was plated at a density of about 46,000 cells/mL, 130 uL cells per well in 96 well plates.
Various concentrations of Compound 1 and various combinations of dexamethasone were added to various wells of cells. Single agents (Compound 1 or dexamethasone alone) were also added to some wells of cells. Cells were incubated with compounds for 72 hours. To assay for effects of the compounds on cell viability, a CellTiter-Glo® luminescent cell viability assay (commercially available) was used. To each plate of cells, 100 uL CellTiter-Glo reagent was added, incubated, and luminescence quantified using a […].
The result for cell line SUDHL6 is depicted in FIG. 12 and in Table 12. […] Table 12 depicts combination index (CI) values for different combinations of dexamethasone/Compound 1 concentrations.

OCI-Ly7 = assay: Combination study, ATPLite 72 h, dose matrix (Synergy Score, CI50)
DOHH-2 = assay: as above
RL = assay: as above
KARPAS-422 = assay: as above
Protocol: Cells are thawed from a liquid nitrogen preserved state. Once cells have been expanded and divide at their expected doubling times, screening begins. Cells are seeded in growth media in either black 1536-well or 384-well tissue culture treated plates. Cells are then equilibrated in assay plates via centrifugation and placed in incubators attached to the Dosing Modules at 37° C. for 24 hours before treatment. […] These Tzero (To) plates are read using ultra-sensitive luminescence on Envision plate readers (Perkin Elmer). Treated assay plates are incubated with compound for 72 hours. After 72 hours, plates are developed for endpoint analysis using ATPLite. All data points are collected via automated processes, quality controlled and analyzed using Zalicus software.
where T is treated cell count and V is untreated (vehicle) cell count (at 72 hours). I ranges from 0% (when T=V) to 100% (when T=0). […] The measure of effect in the experiment can be the inhibition of cellular response relative to the untreated level (vehicle alone). […] The inhibition ranges from 0% at the untreated level to 100% when T=0. Inhibition levels are negative for agents that actually increase levels. Other effect measures, such as an activity ratio r=T/V may be more appropriate for some assays. When activity ratios (e.g, fold increase over stimulated control) are being used, the effect can be measured using an induction 1=ln(T/V). With this definition, all effect expressions are the same as for inhibition.
Growth Inhibition (GI) is used as a measure of cell viability. […] A GI reading of 100% represents complete growth inhibition—T72 compound-treated and T0 vehicle signals are matched. […] A GI reading of 200% represents complete death of all cells in the culture well. Compounds reaching an activity plateau of GI 200% are considered cytotoxic. GI is calculated by applying the following test and equation:
Combination analysis data were collected in a 6×6 dose matrix. Synergy is calculated by comparing a combination's response to those of its single compound, against the drug-with-itself dose-additive reference model. Deviations from dose additivity may be assessed visually on an isobologram or numerically with a Combination Index (CI). […] Additive effect is CI=1.0. […] Antagonistic effect is CI>1.0.
To measure combination effects in excess of Loewe additivity, a scalar measure to characterize the strength of synergistic interaction termed the Synergy Score is devised. The Synergy Score is calculated as:
The fractional inhibition for each component agent and combination point in the matrix is calculated relative to the median of all vehicle-treated control wells. The Synergy Score equation integrates the experimentally-observed activity volume at each point in the matrix in excess of a model surface numerically derived from the activity of the component agents using the Loewe model for additivity. Additional terms in the Synergy Score equation (above) are used to normalize for various dilution factors used for individual agents and to allow for comparison of synergy scores across an entire experiment. The inclusion of positive inhibition gating or an Idata multiplier removes noise near the zero effect level, and biases results for synergistic interactions at that occur at high activity levels.
Loewe Volume (Loewe Vol) is used to assess the overall magnitude of the combination interaction in excess of the Loewe additivity model. Loewe Volume is particularly useful when distinguishing synergistic increases in a phenotypic activity (positive Loewe Volume) versus synergistic antagonisms (negative Loewe Volume). […] This model defines additivity as a non-synergistic combination interaction where the combination dose matrix surface should be indistinguishable from either drug crossed with itself.

WSU-NHL = assay: as above

C[C@H](Nc1ncnc2[nH]cnc12)c1cc2cccc(Cl)c2c(=O)n1-c1ccccc1 [Compound 1, (S)-3-(1-((9H-purin-6-yl)amino)ethyl)-8-chloro-2-phenylisoquinolin-1(2H)-one]
combination index (CI) (SUDHL6; Compound 1 111.1 nM + Dexamethasone 1000 nM): A (A = 0.0001 to <0.3)
combination index (CI) (SUDHL6; Compound 1 111.1 nM + Dexamethasone 3000 nM): A (A = 0.0001 to <0.3)
combination index (CI) (SUDHL6; Compound 1 333.3 nM + Dexamethasone 1.4 nM): E (E = >1)
combination index (CI) (SUDHL6; Compound 1 333.3 nM + Dexamethasone 4.1 nM): E (E = >1)
combination index (CI) (SUDHL6; Compound 1 333.3 nM + Dexamethasone 12.3 nM): E (E = >1)
combination index (CI) (SUDHL6; Compound 1 333.3 nM + Dexamethasone 37 nM): E (E = >1)
combination index (CI) (SUDHL6; Compound 1 333.3 nM + Dexamethasone 111.1 nM): A (A = 0.0001 to <0.3)
combination index (CI) (SUDHL6; Compound 1 333.3 nM + Dexamethasone 333.3 nM): A (A = 0.0001 to <0.3)
combination index (CI) (SUDHL6; Compound 1 333.3 nM + Dexamethasone 1000 nM): A (A = 0.0001 to <0.3)
combination index (CI) (SUDHL6; Compound 1 333.3 nM + Dexamethasone 3000 nM): A (A = 0.0001 to <0.3)
combination index (CI) (SUDHL6; Compound 1 1000 nM + Dexamethasone 1.4 nM): E (E = >1)
combination index (CI) (SUDHL6; Compound 1 1000 nM + Dexamethasone 4.1 nM): B (B = 0.3 to <0.5)
combination index (CI) (SUDHL6; Compound 1 1000 nM + Dexamethasone 12.3 nM): E (E = >1)
combination index (CI) (SUDHL6; Compound 1 1000 nM + Dexamethasone 37 nM): E (E = >1)
combination index (CI) (SUDHL6; Compound 1 1000 nM + Dexamethasone 111.1 nM): A (A = 0.0001 to <0.3)
combination index (CI) (SUDHL6; Compound 1 1000 nM + Dexamethasone 333.3 nM): A (A = 0.0001 to <0.3)
combination index (CI) (SUDHL6; Compound 1 1000 nM + Dexamethasone 1000 nM): A (A = 0.0001 to <0.3)
combination index (CI) (SUDHL6; Compound 1 1000 nM + Dexamethasone 3000 nM): A (A = 0.0001 to <0.3)
combination index (CI) (SUDHL6; Compound 1 3000 nM + Dexamethasone 1.4 nM): A (A = 0.0001 to <0.3)
combination index (CI) (SUDHL6; Compound 1 3000 nM + Dexamethasone 4.1 nM): A (A = 0.0001 to <0.3)
combination index (CI) (SUDHL6; Compound 1 3000 nM + Dexamethasone 12.3 nM): A (A = 0.0001 to <0.3)
combination index (CI) (SUDHL6; Compound 1 3000 nM + Dexamethasone 37 nM): A (A = 0.0001 to <0.3)
combination index (CI) (SUDHL6; Compound 1 3000 nM + Dexamethasone 111.1 nM): A (A = 0.0001 to <0.3)
combination index (CI) (SUDHL6; Compound 1 3000 nM + Dexamethasone 333.3 nM): A (A = 0.0001 to <0.3)
combination index (CI) (SUDHL6; Compound 1 3000 nM + Dexamethasone 1000 nM): A (A = 0.0001 to <0.3)
combination index (CI) (SUDHL6; Compound 1 3000 nM + Dexamethasone 3000 nM): A (A = 0.0001 to <0.3)
CI50 growth inhibition (OCI-Ly7; combination with Dexamethasone): S (S=0.01 to <0.5)
CI50 inhibition (OCI-Ly7; combination with Dexamethasone): S (S=0.01 to <0.5)
Synergy Score growth inhibition (OCI-Ly7; combination with Dexamethasone): A3 (A3=>3)
Synergy Score inhibition (OCI-Ly7; combination with Dexamethasone): A2 (A2=1 to <3)
CI50 growth inhibition (OCI-Ly7; combination with LEE011): U (U=0.7 to <1)
CI50 inhibition (OCI-Ly7; combination with LEE011): W (W=≥1)
Synergy Score growth inhibition (OCI-Ly7; combination with LEE011): A2 (A2=1 to <3)
Synergy Score inhibition (OCI-Ly7; combination with LEE011): A1 (A1=0.0001 to <1)
CI50 growth inhibition (OCI-Ly7; combination with PCI-32765): W (W=≥1)
Synergy Score growth inhibition (OCI-Ly7; combination with PCI-32765): A2 (A2=1 to <3)
Synergy Score inhibition (OCI-Ly7; combination with PCI-32765): A1 (A1=0.0001 to <1)
CI50 growth inhibition (OCI-Ly7; combination with PD-0332991): T (T=0.5 to <0.7)
CI50 inhibition (OCI-Ly7; combination with PD-0332991): S (S=0.01 to <0.5)
Synergy Score growth inhibition (OCI-Ly7; combination with PD-0332991): A2 (A2=1 to <3)
Synergy Score inhibition (OCI-Ly7; combination with PD-0332991): A2 (A2=1 to <3)
CI50 growth inhibition (DOHH-2; combination with Dexamethasone): S (S=0.01 to <0.5)
CI50 inhibition (DOHH-2; combination with Dexamethasone): S (S=0.01 to <0.5)
Synergy Score growth inhibition (DOHH-2; combination with Dexamethasone): A3 (A3=>3)
Synergy Score inhibition (DOHH-2; combination with Dexamethasone): A3 (A3=>3)
CI50 growth inhibition (DOHH-2; combination with LEE011): T (T=0.5 to <0.7)
CI50 inhibition (DOHH-2; combination with LEE011): U (U=0.7 to <1)
Synergy Score growth inhibition (DOHH-2; combination with LEE011): A3 (A3=>3)
Synergy Score inhibition (DOHH-2; combination with LEE011): A2 (A2=1 to <3)
CI50 growth inhibition (DOHH-2; combination with PCI-32765): S (S=0.01 to <0.5)
CI50 inhibition (DOHH-2; combination with PCI-32765): S (S=0.01 to <0.5)
Synergy Score growth inhibition (DOHH-2; combination with PCI-32765): A3 (A3=>3)
Synergy Score inhibition (DOHH-2; combination with PCI-32765): A3 (A3=>3)
CI50 growth inhibition (DOHH-2; combination with PD-0332991): U (U=0.7 to <1)
CI50 inhibition (DOHH-2; combination with PD-0332991): U (U=0.7 to <1)
Synergy Score growth inhibition (DOHH-2; combination with PD-0332991): A3 (A3=>3)
Synergy Score inhibition (DOHH-2; combination with PD-0332991): A2 (A2=1 to <3)
CI50 growth inhibition (RL; combination with Dexamethasone): T (T=0.5 to <0.7)
CI50 inhibition (RL; combination with Dexamethasone): T (T=0.5 to <0.7)
Synergy Score growth inhibition (RL; combination with Dexamethasone): A3 (A3=>3)
Synergy Score inhibition (RL; combination with Dexamethasone): A3 (A3=>3)
CI50 growth inhibition (RL; combination with LEE011): T (T=0.5 to <0.7)
CI50 inhibition (RL; combination with LEE011): U (U=0.7 to <1)
Synergy Score growth inhibition (RL; combination with LEE011): A2 (A2=1 to <3)
Synergy Score inhibition (RL; combination with LEE011): A1 (A1=0.0001 to <1)
CI50 growth inhibition (RL; combination with PCI-32765): S (S=0.01 to <0.5)
CI50 inhibition (RL; combination with PCI-32765): S (S=0.01 to <0.5)
Synergy Score growth inhibition (RL; combination with PCI-32765): A2 (A2=1 to <3)
Synergy Score inhibition (RL; combination with PCI-32765): A2 (A2=1 to <3)
CI50 growth inhibition (RL; combination with PD-0332991): S (S=0.01 to <0.5)
CI50 inhibition (RL; combination with PD-0332991): S (S=0.01 to <0.5)
Synergy Score growth inhibition (RL; combination with PD-0332991): A2 (A2=1 to <3)
Synergy Score inhibition (RL; combination with PD-0332991): A2 (A2=1 to <3)
CI50 growth inhibition (KARPAS-422; combination with Dexamethasone): U (U=0.7 to <1)
CI50 inhibition (KARPAS-422; combination with Dexamethasone): T (T=0.5 to <0.7)
Synergy Score growth inhibition (KARPAS-422; combination with Dexamethasone): A3 (A3=>3)
Synergy Score inhibition (KARPAS-422; combination with Dexamethasone): A2 (A2=1 to <3)
CI50 growth inhibition (KARPAS-422; combination with LEE011): S (S=0.01 to <0.5)
CI50 inhibition (KARPAS-422; combination with LEE011): S (S=0.01 to <0.5)
Synergy Score growth inhibition (KARPAS-422; combination with LEE011): A2 (A2=1 to <3)
Synergy Score inhibition (KARPAS-422; combination with LEE011): A2 (A2=1 to <3)
CI50 growth inhibition (KARPAS-422; combination with PCI-32765): S (S=0.01 to <0.5)
CI50 inhibition (KARPAS-422; combination with PCI-32765): S (S=0.01 to <0.5)
Synergy Score growth inhibition (KARPAS-422; combination with PCI-32765): A3 (A3=>3)
Synergy Score inhibition (KARPAS-422; combination with PCI-32765): A2 (A2=1 to <3)
CI50 growth inhibition (KARPAS-422; combination with PD-0332991): S (S=0.01 to <0.5)
CI50 inhibition (KARPAS-422; combination with PD-0332991): S (S=0.01 to <0.5)
Synergy Score growth inhibition (KARPAS-422; combination with PD-0332991): A2 (A2=1 to <3)
Synergy Score inhibition (KARPAS-422; combination with PD-0332991): A2 (A2=1 to <3)
CI50 growth inhibition (WSU-NHL; combination with Dexamethasone): S (S=0.01 to <0.5)
CI50 inhibition (WSU-NHL; combination with Dexamethasone): S (S=0.01 to <0.5)
Synergy Score growth inhibition (WSU-NHL; combination with Dexamethasone): A3 (A3=>3)
Synergy Score inhibition (WSU-NHL; combination with Dexamethasone): A3 (A3=>3)
CI50 growth inhibition (WSU-NHL; combination with LEE011): S (S=0.01 to <0.5)
CI50 inhibition (WSU-NHL; combination with LEE011): S (S=0.01 to <0.5)
Synergy Score growth inhibition (WSU-NHL; combination with LEE011): A2 (A2=1 to <3)
Synergy Score inhibition (WSU-NHL; combination with LEE011): A2 (A2=1 to <3)
CI50 growth inhibition (WSU-NHL; combination with PCI-32765): S (S=0.01 to <0.5)
CI50 inhibition (WSU-NHL; combination with PCI-32765): S (S=0.01 to <0.5)
Synergy Score growth inhibition (WSU-NHL; combination with PCI-32765): A3 (A3=>3)
Synergy Score inhibition (WSU-NHL; combination with PCI-32765): A3 (A3=>3)
CI50 growth inhibition (WSU-NHL; combination with PD-0332991): S (S=0.01 to <0.5)
CI50 inhibition (WSU-NHL; combination with PD-0332991): S (S=0.01 to <0.5)
